Values joined by “and” are separate entries in the source; they are usually repeats but may differ in a detail not shown here. Equal entries are not always repeated. “Also recorded” adds a separate entry of the source. Where two headings read alike, the source gives them in different places. Residues, ends and D or L forms follow the SMILES beside them.
Key:
rat cortical neurons = assay: Penetration of neuronal membranes (confocal microscopy, transmission electron microscopy); type: cell-based; settings: 5 μM, 24 hours, FITC-labeled; listed as Helix-A peptide
Experimental: FTIR spectra of Helix-A nano. The gray line highlights the Amide region typical of peptide components. c. […] Representative images obtained by transmission electron microscopy showing unmodified MSN and Helix-A nano in intact and open lysosomes, respectively. Bar=500 nm.
Primary cortical neurons: Cortical neuronal cultures were prepared from the cortex of embryonic (E17-18) Sprague Dawley rats (Charles River, Mass.). Cells were seeded onto poly-L-lysine pre-coated plates in Neurobasal Medium containing 2% B27 supplement, […] glutamate, 0.5 mM L-glutamine, and 1% antibiotic-antimycotic solution (INVITROGEN®, Carlsbad, Calif.). Cultures were grown at 37° C. in 5% CO2/95% air for 7 days. Cultures contained ˜5% of non-neuronal cells. […]
Immunocytochemistry of primary neurons: Primary cortical neurons were maintained on glass coverslips for 7 days and fixed in 4% paraformaldehyde/phosphate buffer with 4% sucrose for 20 minutes at room temperature (RT). […] Coverslips were washed with PBS-T and correspondent fluorescence-conjugated secondary antibody (1:2000; INVITROGEN®, CA) were applied for 1 hour at RT. […] Image scale was calibrated and length of MAP-2 positive processes was measured in 10 neurons per field using ImageJ.

assembled MTs = assay: SPR (BIACORE T200) binding to immobilized assembled microtubules; set-up: species or system Porcine
Experimental: (§1) Surface plasmon resonance (SPR). BIACORE® T200™ was used to determine the kinetic parameters for the binding of recombinant TUBB3, tubulin dimer, and assembled microtubules (ligands) to the various isoforms of gp120 or related peptides (analytes). Recombinant TUBB3, tubulin dimer, and assembled MTs were covalently attached to different flow cells of a carboxymethyldextran (CM5) sensor chip by amine coupling. The chip surface was activated for 720 sec at 10 μL/min with of 1:1 mixture of 0.1 M N-Hydroxysuccinimide (NHS) and 0.5 M 1-Ethyl-3-(-3-dimethylaminopropyl)-carbodiimide hydrochloride (EDC). […] After ligand capture, the surfaces were deactivated by injecting 1 M ethanolamine for 720 sec at 10 μL/min. HBS-P (10 mM HEPES, pH7.4, 150 mM NaCl, 0.05% P-20) with 2 mM MgCl2 used as the running buffer. Flow cell 1 on each chip was left empty and used for reference surface. TUBB3 (1040 RU), tubulin dimer (2086 RU), and assembled MTs (990 RU) were captured on the remaining 3 flow cells. Kinetic studies were performed by injecting different concentrations of the analytes in triplicate. The chip surface was regenerated by with 10 mM glycine pH 1.5 injected for 30 sec at a flow rate of 100 μL/min. Each sample was injected for 60 sec (contact time) followed by a dissociation time of 300 sec at a flow rate of 100 μL/min. Data was analyzed with BIACORE® T200™ Evaluation Software (version 1) to determine the equilibrium dissociation constant (KD) from a 1:1 binding model. Binding studies with peptides Helix A and Helix B were done in the same way as described above. Kinetic studies were performed by injecting different concentrations (20 μM, 10 μM, 5 μM, 2.5 μM, 1.25 μM and 0.625 μM) of Helix A and Helix B. Competition experiments with Helix A and Helix B were performed by mixing 100 nM gp120 isoforms with 10 μM of each peptide and injecting over the sensorchip surface.
Recombinant TUBB3, tubulin dimer, and assembled MTs from bovine brains were immobilized on a BIACORE® CM5 chip by amine coupling. […] The kinetics of interaction was analyzed using a BIACORE® T200™ instrument. […]

recombinant TUBB3 = target: T1, recombinant TUBB3 (Homo sapiens, UniProt Q13509); assay: SPR (BIACORE T200) binding to immobilized TUBB3; settings: for Kd: Ligand: TUBB3
T1 construct: purchased MyBioSource, San Diego, Calif
T1 sequence (Q13509 whole entry): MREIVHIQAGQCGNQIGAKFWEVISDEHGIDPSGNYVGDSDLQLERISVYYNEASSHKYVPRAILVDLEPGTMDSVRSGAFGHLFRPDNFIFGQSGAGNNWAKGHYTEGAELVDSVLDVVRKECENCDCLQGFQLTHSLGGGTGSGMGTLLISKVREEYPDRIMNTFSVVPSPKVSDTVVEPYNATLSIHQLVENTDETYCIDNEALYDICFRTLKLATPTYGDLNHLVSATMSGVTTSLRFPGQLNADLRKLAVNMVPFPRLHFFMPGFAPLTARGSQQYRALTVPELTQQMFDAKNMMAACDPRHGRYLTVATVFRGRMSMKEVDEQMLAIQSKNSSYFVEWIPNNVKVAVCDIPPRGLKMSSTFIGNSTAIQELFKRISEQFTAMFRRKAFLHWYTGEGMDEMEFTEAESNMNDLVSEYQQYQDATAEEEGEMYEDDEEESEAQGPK
Experimental: as §1, with “TUBB3 (1040 RU), tubulin dimer (2086 RU), and assembled MTs (990 RU) were captured on the remaining 3 flow cells.” left out
Recombinant TUBB3, tubulin dimer, and assembled MTs from bovine brains were immobilized on a BIACORE® CM5 chip by amine coupling. Different concentrations of gp120s (from 3.13 to 100 nM) were injected over the surface in triplicates in each experiment. The kinetics of interaction was analyzed using a BIACORE® T200™ instrument. BiaEvaluation software was used to calculate binding affinities based on 1:1 binding model.

tubulin dimer = assay: SPR (BIACORE T200) binding to immobilized tubulin dimer; set-up: species or system Porcine
Experimental: as §1, with “TUBB3 (1040 RU), tubulin dimer (2086 RU), and assembled MTs (990 RU) were captured on the remaining 3 flow cells.” left out
Recombinant TUBB3, tubulin dimer, and assembled MTs from bovine brains were immobilized on a BIACORE® CM5 chip by amine coupling. Different concentrations of gp120s (from 3.13 to 100 nM) were injected over the surface in triplicates in each experiment. The kinetics of interaction was analyzed using a BIACORE® T200™ instrument. […]

tubulin β-3 (TUBB3) = target: T2, tubulin β-3 (TUBB3) (Rattus norvegicus, UniProt Q4QRB4); assay: LC-MS/MS of gp120 immunocomplex from lysates of gp120-treated neurons; type: binding; settings: anti-gp120 immunoprecipitation
T2 construct: Neurons exposed to gp120IIIB were lysated in RIPA buffer; endogenous in cells; host or cells: primary cortical neurons from embryonic (E17-18) Sprague Dawley rats
T2 sequence (P68370 whole entry): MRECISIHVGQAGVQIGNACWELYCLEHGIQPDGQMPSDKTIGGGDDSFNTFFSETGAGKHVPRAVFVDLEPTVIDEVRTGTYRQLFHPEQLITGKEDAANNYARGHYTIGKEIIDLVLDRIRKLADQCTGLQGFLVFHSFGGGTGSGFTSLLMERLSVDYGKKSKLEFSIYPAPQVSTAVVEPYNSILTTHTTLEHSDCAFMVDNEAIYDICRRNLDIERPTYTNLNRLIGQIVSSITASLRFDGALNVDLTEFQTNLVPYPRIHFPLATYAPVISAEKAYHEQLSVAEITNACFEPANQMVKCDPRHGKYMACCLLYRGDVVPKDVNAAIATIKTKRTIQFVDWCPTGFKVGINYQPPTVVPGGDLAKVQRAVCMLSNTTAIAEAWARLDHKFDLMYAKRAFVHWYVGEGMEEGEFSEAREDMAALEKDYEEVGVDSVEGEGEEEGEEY
T2 sequence (Q4QRB4 whole entry): as the sequence (Q13509 whole entry) above, with E441D counted along it
Experimental: LC-MS/MS analysis identifies tubulin β-3 (TUBB3) as an interactor of gp120IIIB Top panel: Chromatogram of the whole data set of gp120 interactors. In orange is indicated the peak (retention time=46.45 minutes) associated to peptide ^337[…]^350 (SEQ ID NO: 15) of TUBB3. Bottom panel: The fragmentation spectrum of peptide of TUBB3 is shown to identify TUBB3 among gp120IIIB interactors. The series of y sequence coverage is highlighted.
Liquid chomatography-mass spectrometry (LC-MS/MS): Neurons exposed to gp120IIIB were lysated in RIPA buffer with protease and phosphatase inhibitors (THERMO FISHER […]®) at 4° C. and then incubated with mouse anti-gp120 antibody. Gp120 complex of interacting proteins was eluted from immobilized protein A beads, reduced, alkylated and digested with trypsin. The tryptic digests were analyzed by mass spectrometry, using a LTQ ORBITRAP XL™ hybrid FTMS (Fourier transform mass spectrometer) (THERMO FISHER […]®). Peptide separation was performed with solvent A (0.1% HCOOH in H2O) and solvent B (0.1% formic acid in ACN), using the following gradient: from 5% B for 1 minute to 60% B in 70 minutes. Peptides were analyzed using a precursor mass range of 300-5000 Da. MS/MS analyses were used to query a non-redundant protein database (rat.fasta) using the software SEQUEST™. […]

[1] = 100 nM gp120 alone, 60 sec injection

| Compound | penetration of neuronal cell membrane (rat cortical neurons) | SPR response (4-1) RU, Fc4: Microtubules 970 RU (assembled MTs; [1]) | Kd (assembled MTs; Ligand: Assembled MTs, mean of two independent experiments) | SPR response (2-1) RU, Fc2: Tubulin β-3 1092 RU (recombinant TUBB3; [1]) | Kd (recombinant TUBB3; mean of two independent experiments, read-out: Mean KD) | Kd (recombinant TUBB3; single experiment, gp120 3.13 to 100 nM, 1:1 binding model, read-out: KD) | SPR response (3-1) RU, Fc3: Tubulin Dimer 1900 RU (tubulin dimer; [1]) | Kd (tubulin dimer; Ligand: Tubulin Dimer, mean of two independent experiments) | TUBB3 identified among gp120 interactors (LC-MS/MS) (tubulin β-3 (TUBB3)) |
| --- | --- | --- | --- | --- | --- | --- | --- | --- | --- |
| CC[C@H](C)[C@H](NC(=O)[C@H](CC(=O)O)NC(=O)[C@H](CCC(=O)O)NC(=O)[C@H](Cc1c[nH]cn1)NC(=O)[C@H](CCSC)NC(=O)[C@H](CCC(N)=O)NC(=O)[C@H](CCC(=O)O)NC(=O)[C@@H](NC(=O)[C@H](CCSC)NC(=O)[C@H](CC(=O)O)NC(=O)[C@@H](N)CC(N)=O)C(C)C)C(=O)N[C@H](C(=O)N[C@@H](CO)C(=O)N[C@@H](CC(C)C)C(=O)N[C@@H](Cc1c[nH]c2ccccc12)C(=O)N[C@@H](CC(=O)O)C(=O)N[C@@H](CCC(N)=O)C(=O)N[C@@H](CO)C(=O)N[C@@H](CC(C)C)C(=O)N[C@@H](CCCCN)C(=O)O)[C@@H](C)CC [Helix A] (H-NDMVEQMHEDIISLWDQSLK-OH; N-terminus and C-terminus assumed) | could not penetrate; also recorded: not cell-membrane-penetrable | – | – | – | – | – | – | – | – |
| gp120IIIB: HIV envelope protein gp120, strain IIIB, purchased from Immunodiagnostics | – | 19 RU and 15 RU and 23.2 RU | 10 nM | 35 RU and 44 RU | 7.5 nM | 7.91 nM and 7.05 nM | 21 RU and 14 RU and 18.6 RU | 12.3 nM | interactor |
